# Patent US20090076029A1 (Palatin Technologies, Inc., priority 2007, published 2009)
# Read-outs that look alike come from different tables or passages of the source. Square brackets hold non-standard residues; d marks the D form. * marks the point of attachment. dPhe(4-Cl) = N[C@H](Cc1ccc(Cl)cc1)C(=O)O; Heptanoyl = CCCCCCC(=O)*; Bn = c1ccc(C*)cc1
# What was measured:
# hMC4-R [1] = system: T1, hMC4-R; format: binding, human; settings: for Inhibition at 1 μM (AgRP) MC4-R: 1 μM compound
# T1 construct: expressed in transfected cells; host or cells: HEK-293
# Description: Competitive binding assay using [I^125]-AgRP (83-132). Competitive binding studies using [I^125]-AgRP (83-132) were carried out on membranes isolated from cells expressing hMC4-R. The assay was performed in 96 well GF/B Millipore multiscreen filtration plates (MAFB NOB10) pre-coated with 0.5% bovine serum albumin (Fraction V). The assay mixture contained 25 mM HEPES buffer (pH 7.5) with 100 mM NaCl, 2 mM CaCl2, 2 mM MgCl2, 0.3 mM 1,10-phenanthroline, 0.5% bovine serum albumin, cell membranes, radioligand [I^125]-AgRP (83-132) (NEN), and increasing concentrations of compounds in a total volume of 200 μL. Binding was measured at radioligand concentrations of 0.2 nM. After incubating for 1 hour at 37° C., the reaction mixture was filtered and washed with an assay buffer containing 500 mM NaCl. The dried discs were punched out from the plate and counted on a gamma counter. Care was taken to limit the specific binding of the ligand to an amount not exceeding 10% of the counts added to the reaction mixture. Data were analyzed using the Prism Graph-Pad curve fitting software.
# hMC4-R [2] = biological target: T1, hMC4-R; assay: Competitive inhibition assay using [I125]-NDP-α-MSH, hMC4-R membranes; format: binding, human; settings: for attenuation of binding of α-MSH and AgRP to MC4-R: both ligands (NDP-α-MSH and AgRP), summary
# Description: (§1) Competitive inhibition assay using [1125]-NDP-α-MSH. A competitive inhibition binding assay was conducted using membranes prepared from HEK-293 cells transfected to express hMC3-R, hMC4-R or hMC5-R, and from B-16 mouse melanoma cells (containing MC1-R) using 0.2 to 0.4 nM [I^125]-NDP-α-MSH (New England Nuclear) in 50 mM HEPES buffer containing 1 mM MgCl2, 2 mM CaCl2, and 5 mM KCl, at pH 7.2. In certain experiments, HEK-293 cells transfected to express hMC1-R were also employed. The assay tube also contained a chosen concentration of the test compound of this invention, typically a 1 μM concentration, for determining inhibition of the binding of [^1125]-NDP-α-MSH to its receptor. Non-specific binding was measured by inhibition of binding of [I^125]-NDP-α-MSH in the assay with the presence of 1 μM α-MSH.
# (§2) The assay mixture was incubated for 90 minutes at room temperature, then filtered and the membranes washed three times with ice cold buffer. The filter was dried and counted in a gamma counter for remaining radioactivity bound to the membranes. 100% specific binding was defined as the difference in radioactivity (cpm) bound to cell membranes in the absence and presence of 1 μM α-MSH. The cpm obtained in presence of test compounds were normalized with respect to 100% specific binding to determine the percent inhibition of [125]-NDP-α-MSH binding. Each assay was conducted in triplicate and the actual mean values are described, with results less than 0% reported as 0%.
# hMC4-R [3] = system: T1, hMC4-R; assay: cAMP functional assay in HEK-293 cells expressing MC4-R (agonist, neutral antagonist/Schild); format: cell-based, human; settings: for intrinsic activity at MC4-R: NDP-α-MSH maximal stimulation = 1.0
# Description: General method for EC50 determination in functional activity assay. Functional evaluation of compounds at melanocortin receptors was performed by measuring the accumulation of intracellular cAMP in HEK-293 cells expressing hMC3-R, hMC4-R or hMC5-R, and in B-16 mouse melanoma cells expressing MC1-R. Cells suspended in Earle's Balanced Salt Solution containing 10 mM HEPES (pH 7.5), 5 mM MgCl2, 1 mM glutamine, 0.1% albumin and 0.6 mM 3-isobutyl-1-methyl-xanthine, a phosphodiesterase inhibitor, were plated in 96 well plates at a density of 0.5×10^5 cells per well. Cells were incubated with the test compounds in the presence or absence of α-MSH for 1 hour at 37° C. cAMP levels in the cell lysates were measured using an EIA kit (Amersham). Data analysis and EC50 values were determined using nonlinear regression analysis with Prism Graph-Pad software.
# Functional status. The agonist/antagonist status with respect to MC1-R, MC-3R, MC4-R and MC5-R of certain compounds of the invention was determined.
# Assay for agonist. Evaluation of the molecules to elicit a functional response in HEK-293 cells expressing MC4-R was accomplished by measuring the accumulation of intracellular cAMP following treatment. Confluent HEK-293 cells expressing MC4-R were detached by enzyme free cell suspension buffer. Cells were suspended in Earle's Balanced Salt Solution containing 10 mM HEPES (pH 7.5), 1 mM MgCl2, 1 mM glutamine, 0.5% albumin and 0.3 mM 3-isobutyl-1-methyl-xanthine (IBMX), a phosphodiesterase inhibitor. The cells were plated in 96 well plates at a density of 0.5×10^5 cells per well and pre-incubated for 30 minutes. The cells were then challenged with the test compounds dissolved in DMSO at a concentration range of 0.05-5000 nM in a total assay volume of 200 μL for 1 hour at 37° C. The concentration of DMSO was always held at 1% in the assay mixture. NDP-α-MSH was used as the reference agonist. At the end of the incubation period the cells were disrupted by the addition of 50 μL of lysis buffer from a cAMP EIA kit (Amersham). Complete rupture of the cells was obtained by pipetting the cells multiple times. cAMP levels in the cell lysates were measured after appropriate dilution using the EIA kit (Amersham) method. Data analysis and EC50 values were determined by using nonlinear regression analysis with Prism Graph-Pad software. […] FIG. 1 illustrates typical results, showing the stimulation of cAMP using the compound of Example 11 in HEK-293/MC4-R cells with comparison to NDP-α-MSH.
# Assay for Neutral Antagonist. Compounds with a high affinity for binding to MC4-R membranes but with less potency in terms of cAMP accumulation (EC50>1000 nM) and low response ratio (<0.1) were analyzed for their ability to antagonize the stimulatory effect of the agonist NDP-α-MSH. These studies were carried out in HEK-293 cells expressing MC4-R. Cells were incubated with the compounds in the presence of the agonist NDP-α-MSH and the extent of antagonism was measured by the decrease in intracellular cAMP concentrations. Screening the compounds for antagonist activity was performed at a single concentration of NDP-α-MSH (1.0 nM) over a compound concentration range of 0.5-5000 nM.
# Experimental details were similar to the analysis for agonistic activity described above. Briefly, cells were pre-incubated for 30 minutes with the test compounds at concentrations between 0.5 nM and 5000 nM. The cells were then stimulated with NDP-α-MSH at a concentration of 1 nM for 1 hour. For Schild's analysis, the interactions were studied using at least 3 concentrations of the compounds, separated by a log unit, over a full range of the agonist (0.005-5000 nM). cAMP levels were measured in the cell lysates after appropriate dilution. Nonlinear regression analysis with Prism Graph-Pad software was used for Schild analysis and to obtain EC50 values. pA2 values were derived from the Schild plot of the data.
# hMC5-R = biological target: T2, hMC5-R; assay: Competitive inhibition assay using [I125]-NDP-α-MSH, hMC5-R membranes; format: binding, human; settings: read-out: Ki (nM) (NDP-α-MSH) MC5-R
# T2 construct: expressed in transfected cells; host or cells: HEK-293
# Description: as §1, §2
# hMC3-R = biological target: T3, hMC3-R; assay: Competitive inhibition assay using [I125]-NDP-α-MSH, hMC3-R membranes; format: binding, human; settings: read-out: Ki (nM) (NDP-α-MSH) MC3-R
# T3 construct: expressed in transfected cells; host or cells: HEK-293
# Description: as §1, §2
# MC1-R = biological target: T4, MC1-R; assay: Competitive inhibition assay using [I125]-NDP-α-MSH, MC1-R membranes; format: binding, mouse; settings: for Inhibition at 1 μM (NDP-α-MSH) MC1-R: 1 μM compound
# T4 construct: other: 1 μM compound
# Description: as §1, §2
# [4] = MC4-R membranes, Table 1, read-out: Ki (nM) I125-AgRP
# [5] = MC4-R membranes, Table 1, read-out: Ki (nM) I125-NPD-α-MSH
# [6] = read-out: Ki (nM) (NDP-α-MSH) MC4-R
# [7] = cAMP assay, read-out: EC50 (nM) at MC4-R
Molecule,Inhibition at 1 μM (AgRP) MC4-R (hMC4-R [1]) [%],Ki (hMC4-R [1]; [4]) [nM],Ki (hMC4-R [1]; read-out: Ki (nM) (AgRP) MC4-R),Ki (hMC4-R [2]; [5]) [nM],attenuation of binding of α-MSH and AgRP to MC4-R (hMC4-R [2]),Ki (hMC4-R [2]; [6]) [nM],"functional status (pAg, Ag, Antag, Inactive) (hMC4-R [3]; MC4-R, Table 1)","EC50 (hMC4-R [3]; MC4-R, Table 1, read-out: EC50) [nM]",intrinsic activity at MC4-R (hMC4-R [3]),EC50 (hMC4-R [3]; [7]) [nM],Ki (hMC5-R) [nM],Ki (hMC3-R) [nM],Ki (MC1-R) [nM],Inhibition at 1 μM (NDP-α-MSH) MC1-R (MC1-R) [%],"pA2 (M) (hMC4-R [3]; MC4-R antagonists, Table 1)",pA2 value at MC4-R (hMC4-R [3]; Schild plot vs NDP-α-MSH),"functional status at MC4-R (hMC4-R [3]; cAMP assay, mostly at 1 μM)","EC50 (hMC4-R [3]; MC4-R, Table 1 in μM, read-out: EC50) [nM]"
7′-amino-heptanoyl-Ser(Bzl)-D-Phe(4-Cl)-Arg-S-(−)-1-(1-naphthyl)ethylamide [Example 17],100,0.6,0.6,7,attenuate the binding of both α-MSH and AgRP to MC4-R,7,pAg (“pAg” means partial agonist),17,0.3,17,313,125,–,–,–,–,–,–
NH2—(CH2)6—C(═O)-Ser(Bzl)-D-Phe(4-Cl)-Arg-Trp-Asp-Phe-NH2 [Example 15],95,0.6,0.6,5,attenuate the binding of both α-MSH and AgRP to MC4-R,5,pAg (“pAg” means partial agonist),283,0.5,238,405,76,242,38,–,–,–,–
"N=C(N)NCCC[C@H]1CN(CCc2ccc3ccccc3c2)CCN1C(=O)[C@H](N)Cc1ccc(Cl)cc1Cl [Example 18, N-{3-[(S)-1%-[(R)-2-Amino-3-(2,4-dichloro-phenyl)-propionyl]-4-(2-naphthalen-2-ylethyl)-piperazin-2-yl]-propyl}-guanidine]",100,1,1,3,attenuate the binding of both α-MSH and AgRP to MC4-R,3,pAg (“pAg” means partial agonist),22,0.4,22,259,97,1200,6,–,–,–,–
NH2—(CH2)6—C(═O)-Ser(Bzl)-D-Phe(4-Cl)-Arg-Trp-NH2 [Example 1],–,–,8,–,attenuate the binding of both α-MSH and AgRP to MC4-R,1,pAg (“pAg” means partial agonist),296,0.3,296,208,27,351,33,–,–,–,–
"N=C(N)NCCC[C@H]1C(=O)N2C(CC[C@@H]2COc2ccc3ccccc3c2)N1C(=O)[C@@H](Cc1ccc(Cl)cc1Cl)NC(=O)[C@@H]1Cc2ccccc2CN1 (stereo partly drawn) [Example 23, (S)-1,2,3,4-Tetrahydro-isoquinoline-3-carboxylic acid {(R)-1-(2,4-dichloro-benzyl)-2-[(2S,5R)-2-(3-guanidino-propyl)-5-(naphthalen-2-yloxymethyl)-3-oxo-hexahydro-pyrrolo[1,2-a]imidazol-1-yl]-2-oxo-ethyl}-amide]",100,1.2,1.2,1,–,1,Antag (“Antag” means antagonist),–,–,–,26,42,–,–,8.086,8.0,antagonist,–
Heptanoyl-T(Bn)[dPhe(4-Cl)]RW-NH2 [Example 24],90,69,69,21,attenuate the binding of both α-MSH and AgRP to MC4-R,21,pAg (“pAg” means partial agonist),–,0.4,> 1000,292,374,–,–,–,–,–,> 1000
